Assay [1] relates to HR-AD feed fed Hos: HR-1 series hairless mouse. Nature of the assay: Test using HR-AD feed fed hairless mouse. The settings on record: for Number of obstructive orifices: among eight orifices at centre of upper eyelid. It is filed as in vivo, Hos: HR-1 series hairless mice. As to the method: It has been known that a HR-AD feed is fed to Hos: HR-1 series hairless mouse, obstruction of the meibomian gland orifices similar to the signs/findings of MGD could be recognized (Japanese Patent Application No. 2012-137778). Thus, effects of sirolimus and deforolimus which are representative examples of the present compounds on the obstruction were investigated.
0.1% (w/v) sirolimus suspension: it was prepared by suspending in 0.01% (w/v) hydroxypropylmethyl cellulose.
0.1% (w/v) deforolimus suspension: it was prepared by suspending in 0.01% (w/v) hydroxypropylmethyl cellulose. Incidentally, deforolimus used in the present test was prepared according to the method described in JP 2005-516065A.
Six-weeks old male Hos: HR-1 series hairless mice were grouped into 5 mice of a normal feed fed group (CRF-1 feed, available from Oriental Yeast Co., Ltd.) and 15 mice of a HR-AD feed fed group (available from Nosan Corporation), and fed the normal feed or the HR-AD feed, respectively, which were spontaneously taken. After 28th day from initiation of the feeding, the meibomian gland orifices were observed by using a slit lamp, and a number of obstructive orifices among the eight meibomian gland orifices at the center of the upper eyelid was measured. Incidentally, the presence or absence of obstruction of the meibomian gland orifices was judged by the state whether the meibomian gland orifices were in a turbid and raised or not (see JP 2014-023526A).
Fifteen mice of the HR-AD feed fed group were grouped into a physiological saline solution-administered group, a 0.1% sirolimus suspension-administered group and a 0.1% deforolimus suspension-administered group (5 mice in each group), and from 29th day from initiation of the feeding, the physiological saline solution (2 μL/eye, twice a day), the 0.1% sirolimus suspension (2 μL/eye, twice a day) or the 0.1% (w/v) deforolimus suspension (2 μL/eye, twice a day) were dropped to the eye for 28 days. At 42nd day and 56th day after initiation of the feeding, a number of obstructions of the meibomian gland orifices was measured by using a slit lamp.

For assay [2], the system named is complete Freund's adjuvant administered rabbit. The assay can be described thus: Test using complete Freund's adjuvant administered rabbit. It is filed as in vivo, Japanese white rabbits. The settings on record: average; for Score of telangiectasia: right upper eyelid, sum of three fractions. Here is the method:
In a complete Freund's adjuvant administered rabbit, telangiectasia around the meibomian gland orifices, and obstruction at the meibomian gland orifices, which are similar to the signs/findings of MGD can be recognized. Effects of sirolimus which was a representative example of the present compound on the telangiectasia and obstruction were investigated (see JP 2014-024835A).
0.1% (w/v) sirolimus suspension: it was prepared by suspending in 0.01% (w/v) hydroxypropylmethyl cellulose. Incidentally, with regard to sirolimus, that purchased from LKT Laboratories, Inc., (Catalog number: R0161) was used (which is the same in the following Examples).
10 μL of the complete Freund's adjuvant was administered to the right upper eyelid (3 portions) of about 2 kg of male Japanese white rabbits, respectively. After 4 days from provocation, around the meibomian gland orifices of the right upper eyelid was observed by using slit lamp, a score of telangiectasia and a score of obstruction at the meibomian gland orifices were judged.
Incidentally, with regard to the score of telangiectasia, in accordance with the criteria in the following Tables 1 and 2, the eyelid margin of the upper eyelid was equally divided to three fractions of the ear side, the center portion and the nose side, the score of telangiectasia around the meibomian gland orifices was judged with regard to the respective fractions, and the sum of the scores of the three fractions was calculated as a score per one eye. Here, the presence or absence of dilation of the capillaries was judged by the state whether the capillaries which cannot be usually recognized with naked eyes can be recognized or not as a result of dilation of the diameter of the blood vessel. Also, the presence or absence of obstruction of the meibomian gland orifices was judged by the state whether the meibomian gland orifices are in a turbid or not.
The rabbits were grouped into a physiological saline solution-administered group and a 0.1% sirolimus suspension-administered group, and tested with 7 or 8 eyes in each group so that fluctuation of the average value of the respective scores became small. After 5th day from provocation, a physiological saline solution (50 μL/eye, twice a day) or a 0.1% sirolimus suspension (50 μL/eye, twice a day) was dropped into the right eye for 10 days. After 11th and 15th days from provocation, around the meibomian gland orifices of the right upper eyelid was observed by using a slit lamp, whereby the score of telangiectasia was judged and the number of the obstructive orifices was measured.

Setting [3] is: 42nd day after initiation of the feeding, 0.1% (w/v) suspension 2 μL/eye twice a day from 29th day.
Setting [4] is: 56th day after initiation of the feeding, 0.1% (w/v) suspension 2 μL/eye twice a day for 28 days.
Where [5] appears, read: 11th day after provocation, 0.1% (w/v) suspension 50 μL/eye twice a day from 5th day.
The mark [6] stands for this setting: 15th day after provocation, 0.1% (w/v) suspension 50 μL/eye twice a day for 10 days.

This note sets out measurements from patent US11951098B2, “Therapeutic agent for meibomian dysfunction” (SANTEN PHARMACEUTICAL CO., LTD., priority 2013, dated 2024).

Each structure is given as a SMILES string.

As for `CO[C@H]1C[C@@H]2CC[C@@H](C)[C@@](O)(O2)C(=O)C(=O)N2CCCC[C@H]2C(=O)O[C@H]([C@H](C)C[C@@H]2CC[C@@H](O)[C@H](OC)C2)CC(=O)[C@H](C)/C=C(\C)[C@@H](O)[C@@H](OC)C(=O)[C@H](C)C[C@H](C)/C=C/C=C/C=C/1C` [0.1% Sirolimus suspension, sirolimus], the “Number of obstructive orifices” value in assay [1] (setting [3]) is 0.7; in assay [1] (setting [4]), 0.0. For the same molecule, the results for the “Score of obstruction of orifices” value in assay [2] (setting [5]) and in assay [2] (setting [6]) were 2.3 and 1.3, respectively. Moreover, the Score of telangiectasia in assay [2] (setting [5]) and in assay [2] (setting [6]) was 2.1 each time.
For `CO[C@H]1C[C@@H]2CC[C@@H](C)[C@@](O)(O2)C(=O)C(=O)N2CCCC[C@H]2C(=O)O[C@H]([C@H](C)C[C@@H]2CC[C@@H](OP(C)(C)=O)[C@H](OC)C2)CC(=O)[C@H](C)/C=C(\C)[C@@H](O)[C@@H](OC)C(=O)[C@H](C)C[C@H](C)/C=C/C=C/C=C/1C` [0.1% Deforolimus suspension, deforolimus], the “Effect on number of the obstructions of the meibomian gland orifices (in words)” value in assay [1] (0.1% suspension instilled, versus physiological saline group) is recorded as “decreased”. Moreover, the “Number of obstructive orifices” value is given as 2.7 in assay [1] (setting [3]) and 2.2 in assay [1] (setting [4]).
